The values below are quoted from earlier work in article PMC10247525 (Colloids and surfaces. B, Biointerfaces, 2023).

The conditions of data set [1]: cited from earlier work.
The conditions of data set [2]: cited from earlier work. This is another data set of the same source.
The conditions of data set [3]: cited from earlier work. This is another data set of the same source.

Values after ≈ are worked out from the molar mass of the structure shown. Values joined by “and” are separate entries in the source; they are usually repeats but may differ in a detail not shown here. Equal values may be shown once.

As for `COc1cccc2c1C(=O)c1c(O)c3c(c(O)c1C2=O)C[C@@](O)(C(=O)CO)C[C@@H]3O[C@H]1C[C@H](N)[C@H](O)[C@H](C)O1` [Doxorubicin], in data set [1], the solubility in water is 52 mg/ml and 90 mM. Moreover, the solubility in methanol result in data set [2] is given as “sparingly”.

For `CC(=O)O[C@H]1C(=O)[C@@]2(C)[C@H]([C@H](OC(=O)c3ccccc3)[C@]3(O)C[C@H](OC(=O)[C@H](O)[C@@H](NC(=O)c4ccccc4)c4ccccc4)C(C)=C1C3(C)C)[C@]1(OC(C)=O)CO[C@@H]1C[C@@H]2O` [Paclitaxel], the “logP (octanol/water)” value in data set [3] is 4. Further, the solubility in water entry in data set [1] was “sparingly”. In addition, in data set [2], the solubility in methanol is 50 mg/mL (≈ 58.6 mM).

For `O=c1[nH]cc(F)c(=O)[nH]1` [5-Fluorouracil], the solubility in water in data set [1] is 12.5 mg/ml and 96 mM. Moreover, the solubility in methanol in data set [2] was 18 mg/mL (≈ 138 mM).
